pIC50: −log10 of the molar value.
Legend:
[1] = target: BRDT-1 (Homo sapiens, UniProt Q58F21); test: biochemical; format: binding; conditions: IC50 (μM) BRDT-1, Alpha Screen, KAc-histone H4 peptide (K5/8/12/16Ac)
[2] = target: BRD4-1 (Homo sapiens, UniProt O60885); test: biochemical; format: binding; conditions: IC50 (μM) BRD4-1, Alpha Screen, KAc-histone H4 peptide (K5/8/12/16Ac)
[3] = test system: BET bromodomains; conditions: cited from earlier work
[4] = test system: VEGFR-2; conditions: read-out: IC50 VEGFR-2; cited from earlier work
[5] = test system: VEGFR-1; conditions: read-out: IC50 VEGFR-1; cited from earlier work

## COc1cc(Nc2ncc(F)c(Nc3ccc4c(n3)N(COP(=O)(O)O)C(=O)C(C)(C)O4)n2)cc(OC)c1OC [Fostamatinib]
[1]
  IC50: > 20 µM
[2]
  IC50: > 20 µM

## COc1cc(Nc2nccc(Nc3ccc4c(C)n[nH]c4c3)n2)cc(OC)c1OC [GW612286X]
[1]
  IC50: 7.6 µM

## O=c1cc(N2CCOCC2)oc2c(-c3ccccc3)cccc12 [LY294002]
[3]
  inhibition of BET bromodomains: modest inhibitor of BET bromodomains

## Cc1ccc(Nc2nccc(N(C)c3ccc4c(C)n(C)nc4c3)n2)cc1S(N)(=O)=O [Pazopanib]
[4]
  pIC50: […]
[5]
  pIC50: 8.00

Source: PMC4032195 (ACS Chemical Biology, 2014)
